Results: patent US11077139B2, “Combination of an arsenic compound and at least one retinoid for treating acute myeloid leukemia” (INSERM (Institut National de la Sante et de la Recherche …, priority 2013, dated 2021)

Legend:
[1] = tested on: OCI-AML3 cells (mutated NPM-1); format: cell-based; details: addition of the proteasome inhibitor
Experimental: Cells were seeded at a density of 2×10^5/ml. Primary AML cells (from either peripheral blood or BM) were extracted following ficoll separation and cultured in MEM-α supplemented with 20% FBS and antibiotics. […] Cell growth was assessed using the CellTiter 96® cell proliferation assay kit (Promega Corp., Madison, Wis., USA) or by trypan blue dye assay.
Proliferation experiments on cell lines were repeated at least three times. Data are reported as the mean+/−standard error. […] CI was used to assess synergistic effects (CI<1), additive effects (CI=1) or antagonistic effects (CI>1). Two statistical tests were performed to validate significance: the t-test and the one-way analysis of variance (ANOVA) test. *, ** and *** indicate p values≤0.05; 0.01 and 0.001, respectively. p-values less than 0.05 were considered significant.

mutant NPM-1 = test: Western blot for NPM-1 and mutated NPM-1; format: cell-based
Experimental: Cells were solubilized at 4° C. in lysis buffer. […] Blots were incubated with specific antibodies, washed and proteins were visualized using the ECL chemiluminescence system (Santa Cruz, Germany). The following antibodies were used; monoclonal anti-wt NPM-1 (Abnova, Abcam), polyclonal anti-mutated NPM-1 (Abnova), anti-actin (Santa-cruz, Germany) and anti-GAPDH (Abnova).

Compound	effect on RA/arsenic-induced growth arrest [1]	effect on RA/arsenic-induced NPM-1 degradation (mutant NPM-1; addition of the proteasome inhibitor)	effect of pre-treatment on arsenic-induced degradation of mutant NPM-1 (mutant NPM-1; data not shown)
CC(C)C[C@H](NC(=O)[C@H](Cc1ccccc1)NC(=O)c1cnccn1)B(O)O [PS-341]	reversed	reversed	
interferon alpha			significantly accelerated
